From US9706772B2, “Method for fungicidal and/or bactericidal treatment of resistant strains using essential oil(s)” (XEDA INTERNATIONAL, priority 2011, dated 2017) come the findings set out here.

Experiment [1] deals with Botrytis spp. Strain resistant to TBZ. The experiment can be described thus: In-vitro inhibition of growth on PDA Petri dishes. The class given is cell-based. On the procedure:
(§1) The samples were added to the artificial media and gently mixed before solidification of the Agar solution.
(§2) A small amount of fungal spores is placed in the centre of the potato dextrose agar (PDA) in the Petri dishes at 25°±1° C. for 5/6 days. At the end of the incubation period, we measure the inhibition of the halo that is formed in comparison with the untreated PDA Petri dishes (control).
(§3) The results are indicated as a percentage of the incidence of the disease and the efficacy percentage of the products tested.

The test system of another experiment is Pennicillum spp. The experiment in a line: In-vitro inhibition of growth on PDA Petri dishes. In kind it is cell-based. The method, then: as §1, §2, §3
The subject of experiment [2] is Pennicillum spp. Strain resistant to Imazalil. The experiment in a line: In-vitro inhibition of growth on PDA Petri dishes. In kind it is cell-based. On the procedure:
as §1, §2, §3

Experiment [3] deals with Monilinia fructicola Strain resistant to Pyrimethanil. The experiment can be described thus: In-vitro inhibition of growth on PDA Petri dishes. In kind it is cell-based. The settings on record: dose not stated. On the procedure: as §1, §2, §3
Experiment [4] has as its system strains of Penicillium expansum resistant to pyrimethanil. The experiment in a line: Efficacy of compositions on Gala apples, FIG. 1. The settings on record: FIG. 1, "Gala" apples; over the doses shown. In kind it is in vivo. From the text:
These compositions have been tested on various fungi or bacteria strains, such as illustrated in FIGS. 1 and 2. Unless otherwise indicated, the doses listed in the FIGS. 1 and 2 are given in ppm of active ingredient; the indications in ml/l refer to the quantity of composition C. […] Indeed it is observed that there is a synergistic effect between the fungicide and essential oils/terpene agents.

In the case of `Cc1ccc(C(C)C)cc1O` [Carvacrol], the “Efficacy (%)” value in experiment [1] (Dose 100 ml/hl), in experiment [1] (Dose 300 ml/hl), in experiment [1] (Dose 500 ml/hl) and in experiment [1] (Dose 1,000 ml/hl) was 100% throughout. For the same compound, the “Incidence of Disease (%)” value in experiment [1] (Dose 100 ml/hl), in experiment [1] (Dose 300 ml/hl), in experiment [1] (Dose 500 ml/hl) and in experiment [1] (Dose 1,000 ml/hl) was 0% each time. Moreover, the “control (in words)” value in experiment [1] (at all doses tested) is on record as “total control”.

Take `Cc1ccc(C(C)C)c(O)c1` [Thymol]: the “Efficacy (%)” value worked out at 20% with Pennicillum spp. (Dose 100 ml/hl); 50% in the experiment on Pennicillum spp. (Dose 300 ml/hl); 70% in the experiment on Pennicillum spp. (Dose 500 ml/hl); 70% in the experiment with Pennicillum spp. (Dose 1,000 ml/hl); 70% in experiment [2] (Dose 100 ml/hl); 70% in experiment [2] (Dose 300 ml/hl). Also, the “Efficacy (%)” value is on record as 80% in experiment [2] (Dose 500 ml/hl) and 90% in experiment [2] (Dose 1,000 ml/hl). In addition, the “Incidence of Disease (%)” value in the experiment on Pennicillum spp. (Dose 100 ml/hl) stood at 80%; in the experiment on Pennicillum spp. (Dose 300 ml/hl) it was 50%; in the experiment on Pennicillum spp. (Dose 500 ml/hl), 30%; in the experiment on Pennicillum spp. (Dose 1,000 ml/hl), 30%; in experiment [2] (Dose 100 ml/hl), 30%; in experiment [2] (Dose 300 ml/hl), 30%. Moreover, the “Incidence of Disease (%)” value in experiment [2] (Dose 500 ml/hl) turned out to be 20%; in experiment [2] (Dose 1,000 ml/hl), 10%.

`Cc1cc(C)nc(Nc2ccccc2)n1` [pyrimethanil]: the efficacy in experiment [3] is 45%; in experiment [4] it was “at most 60%”.
